Measured values published in US6992215B2, “Thiol-based NAALADase inhibitors” (Guildford Pharmaceuticals Inc., priority 2001, dated 2006).

Key:
[1] = test system: chronic constrictive injury-induced rats; experiment: Neuropathic pain in CCI model (sciatic nerve ligation, thermal hyperalgesia); assay type: in vivo
Description: Sciatic nerve ligation, consisting of 4 ligatures tied loosely around the sciatic nerve at 1 mm intervals proximal to the nerve trifurcation, was performed on rats. […] The rats were habituated to a Hargreaves apparatus. An infrared heat source was directed onto the dorsal surface of each rat's hindpaws and the time taken for the rat to withdraw its paws was noted. The difference in scores between the latency of the response for the paw on the operated side versus the paw on the unoperated control side was determined.
The rats were treated with either Compound 49 (10, 1 or 0.1 mg/kg) or a vehicle for 15 days after sciatic nerve ligation. Thermal pain responses were measured at days 0, 1, 5, 8, 11 and 15. The differences in scores for the rats treated with a vehicle and the rats treated with Compound 49 are graphically presented in FIGS. 13-15.
The rats were treated with either Compound 5 (50, 30, 10, 3, 1 or 0.3 mg/kg) or a vehicle for 12 (or 15) days after sciatic nerve ligation. Thermal pain responses were measured at days 0, 1, 5, 8 and 12 (and 15). The differences in scores for the rats treated with a vehicle and the rats treated with Compound 5 are graphically presented in FIGS. 17-22.
The rats received either Compound C (50 mg/kg i.p. daily) or a vehicle starting 10 days post surgery. […] Normal (unoperated) rats had approximately equal latencies for both paws. This effect was significant starting at 11 days of drug treatment and persisted through to the end of the study (for 21 days of daily dosing).

cortical cell cultures = experiment: In Vitro Assay on Ischemia (glutamate toxicity after potassium cyanide / 2-deoxyglucose insult); assay type: cell-based; settings: concentration required to cause a 50% reduction in glutamate toxicity following an ischemic insult
Description: To examine the in vitro effect of the inventive compounds on ischemia, cortical cell cultures were treated with various compounds of this invention during an ischemic insult utilizing potassium cyanide and 2-deoxyglucose, and for one hour thereafter. For a description of the experimental method used, see Vornov et al., J. Neurochem., Vol. 65, No. 4, pp. […] (1995).

STZ-diabetic rats [2] = experiment: Reversal of diabetic neuropathy in STZ model, delayed dosing; assay type: in vivo; settings: for neuropathic hyperalgesia (withdrawal latency difference scores) / motor nerve conduction velocity: daily p.o.; for neuropathic hyperalgesia (withdrawal latency difference scores): treatment started 5 weeks post STZ, within two weeks of treatment, FIG. 31; for motor nerve conduction velocity: within 8 weeks of dosing, persisted through 12 weeks, FIG. 32
Description: Rats (200 to 225 g) were injected with STZ (70 mg/kg) into the tail vein. Diabetes (>350 mg/dl) was confirmed in all rats, 4 weeks after STZ administration. Rats were left untreated until 35 to 49 days after STZ. Compound D (1, 3, or 10 mg/kg), Compound E (10 mg/kg), or vehicle were dosed daily p.o. following confirmation of hyperalgesia and/or nerve conduction velocity deficits. In separate experiments, onset of treatment was delayed until 60 to 90 days after STZ administration. Nerve conduction velocity or withdrawal response to thermal stimulation of hind paws was measured at intervals, usually bi-weekly for thermal response and monthly for nerve conduction velocity.
Sensory and motor nerve conduction velocities were evaluated using the method of De Koning and Gispen (Peptides 8: 415–422, 1987). Electrophysiological evaluation was carried out within one hour of dosing. Animals were anesthetized with isoflurane and stimulating needle electrodes were inserted close to the sciatic nerve at the sciatic notch and the tibial nerve near the ankle. Recording electrodes were placed over the foot muscles. Stimuli were applied and responses recorded. Motor and sensory nerve conduction velocities were calculated by measuring the distance between the sciatic notch and ankle sites, and the latency between the M-wave and the H-reflex.
Animals were acclimated to the apparatus for at least 5 min. An infra-red source was placed under below the plantar surface of the rat hind-paw. The intensity of the source was adjusted so that latency for normal rats was about 10 secs. Animals were tested for thermal response latency according to the method of Hargreaves et al (Pain 77–88, 1988). Each animal was tested 8 times (4 each hind limb) and the latency of response recorded automatically to nearest 0.1 sec. An average of the last 4 measurements for each paw was calculated (8 total measurements) and noted for each rat.

STZ-diabetic rats [3] = experiment: Diabetic neuropathy in STZ model (motor and sensory nerve conduction velocity); assay type: in vivo
Description: Motor and sensory nerve conduction velocity was also measured in STZ-diabetic animals after 4, 8 and 12 weeks of treatment (see De Koning et al., supra, for a description of the experimental method). Briefly, stimulating needle electrodes were inserted close to the sciatic and tibial nerves with recording electrodes being placed subcutaneously over the distal foot muscles, in anesthetized rats.

[4] = test system: STZ-induced diabetic rats; experiment: Neuropathic pain in STZ model (Hargreaves thermal nociception); assay type: in vivo, Sprague-Dawley rats; settings: 10 mg/kg i.p. daily, treatment started 45 days post-STZ
Description: Male Sprague-Dawley rats (200–225 g) were rendered diabetic by intravenous administration of streptozotocin (“STZ”, 70 mg/kg in phosphate buffered saline). Diabetic animals were divided into five groups: one group receiving Compound A (10 mg/kg or 1 mg/kg), Compound D (10 mg/kg or 1 mg/kg) or vehicle. Another group of animals (non-STZ treated) served as non-diabetic controls. Drug/vehicle treatment was started in diabetic animals 45 days post-STZ administration. STZ-induced diabetic rats were tested for sensitivity to a heat source as soon as blood glucose levels rose to 320 mg/dl or above (30 days post STZ). The rats were then acclimated to a Hargreaves apparatus and thermal nociception was monitored using an infrared heat source directed into the dorsal surface of the hindpaw, and the time taken for the animal to remove its paw noted to the nearest 0.1 seconds (see Hargreaves et al., supra, for detailed experimental method). The intensity of the beam source was adjusted such that the mean latency for control animals (non-STZ treated) was approximately 10 seconds. Each animal was tested 8 times and the mean difference score (between mean non-diabetic control latency and mean diabetic latency) are graphically presented in FIGS. 7A and 7B.

BB/W diabetic rats = experiment: Progression of neuropathic pain and nerve conduction deficits in BB/W model; assay type: in vivo
Text: Male BB/W rats (BRI, Mass) spontaneously develop a cell mediated autoimmune destruction of pancreatic B cells, resulting in onset of insulin-dependent (Type I) diabetes (Guberski 1994). […] This renders them valuable for experimental trials of new compounds for future treatments of this major disorder. In the present study, Compound D and Compound A were examined for their ability to alter the progression of diabetic neuropathy. […] Another group of non-diabetic rats also receiving vehicle were tested. All animals were continuously monitored for body weight, urine volume, blood sugar and glycated haemoglobin. In the first month of the study, all animals were tested for thermal nociception in a Hargreaves apparatus, weekly. After the first month this was done biweekly and then monthly. The testing consists of directing an infrared heat source onto the dorsal surface of the rat hindpaw and noting the time taken for the animal to remove its paw (see Hargreaves et al., supra, for a description of the experimental method). Each animal was tested 8 times and the mean withdrawal latency noted.
Nerve conduction velocity was also measured every two weeks through the first eight weeks of treatment and every month thereafter through to the six months of treatment (see De Koning et al., Peptides, Vol. 8, No. 3, pp. 415–22 (1987) for a description of the experimental method). […] This was apparent starting at 8 weeks of treatment and persisted to a similar degree through to the six month termination point of the study.

SMILES: O=C(O)c1cccc(CC(CCCS)C(=O)O)c1 (stereo not drawn) [Compound 5, 3-carboxy-alpha-(3-mercaptopropyl)-benzenepropanoic acid]
- difference in scores between the operated and unoperated paws ([1]; 50, 30, 10, 3, 1 or 0.3 mg/kg for 12 (or 15) days after sciatic nerve ligation, FIGS. 17-22): normalized the difference in scores
- EC50 (cortical cell cultures): 6.5 nM
- neuropathic hyperalgesia (withdrawal latency difference scores) (STZ-diabetic rats [2]): reversed towards normal
- motor nerve conduction velocity (STZ-diabetic rats [2]): reversed the motor nerve conduction velocity towards normal

SMILES: CC(C)(C)c1cc(CC(CCCS)C(=O)O)cc(C(=O)O)c1 (stereo not drawn) [Compound 49, 3-carboxy-5-(1,1-dimethylethyl)-alpha-(3-mercaptopropyl)-benzenepropanoic acid]
- difference in scores between the operated and unoperated paws ([1]; 10, 1 or 0.1 mg/kg for 15 days after sciatic nerve ligation, FIGS. 13-15): normalized the difference in scores

SMILES: O=C(O)c1cc(CC(CCCS)C(=O)O)ccc1-c1ccccc1 (centres unmarked) [Compound 58, 4-(2-carboxy-5-mercaptopentyl)-[1,1′-biphenyl]-2-carboxylic acid]
- EC50 (cortical cell cultures): 16 nM

SMILES: O=C(O)CCC(CCS)C(=O)O (centres unmarked) [Compound D, 2-(2-sulfanylethyl)pentanedioic acid]
- treatment time after which increase of motor and sensory nerve conduction velocities was significant (STZ-diabetic rats [3]; 10 mg/kg treatment group): 12 weeks
- motor and sensory nerve conduction velocities versus diabetic controls (STZ-diabetic rats [3]; either dose (10 mg/kg or 1 mg/kg), FIGS. 10A and 10B): increased both motor and sensory nerve conduction velocities
- hyperalgesic response (withdrawal latency difference score) [4]: completely reversed
- nerve conduction velocity deficits versus diabetic vehicle controls (BB/W diabetic rats; 10 mg/kg daily, from 8 weeks to six months of treatment, FIG. 12): significantly less severe nerve conduction deficits
- withdrawal latency versus diabetic vehicle-treated rats (BB/W diabetic rats; 10 mg/kg i.p. daily, starting after 4 weeks and through six months of treatment, FIG. 11): longer withdrawal latencies
- neuropathic hyperalgesia (withdrawal latency difference scores) (STZ-diabetic rats [2]): reversed towards normal
- motor nerve conduction velocity (STZ-diabetic rats [2]): reversed the motor nerve conduction velocity towards normal
- motor nerve conduction (STZ-diabetic rats [2]; lower doses 1 and 3 mg/kg, treatment 7 weeks post STZ, even 8 weeks after dosing): remained unimproved
- sensory nerve conduction (STZ-diabetic rats [2]; lower doses 1 and 3 mg/kg, treatment 7 weeks post STZ, within 4 weeks of treatment): significantly improved towards normal
- neuropathic pain abnormalities (STZ-diabetic rats [2]; lower doses 1 and 3 mg/kg, treatment initiated 7 weeks post STZ, FIG. 34): Significant reduction in pain abnormalities
- sensory and motor nerve conduction velocity deficits (STZ-diabetic rats [2]; rats left untreated until 60 days after STZ, external CRO, FIGS. 37 and 38): Partial reversal of both deficits
